Reference: the NIST ThermoML archive (doi:10.1016/j.jct.2014.10.021)

Experiment: mn = molality of the nth substance listed, in mol/kg
Conditions: 298.15 K, 101.33 kPa, Liquid, Alternating current cell with electrodes

CCCC[N+]1(C)CCCC1.O=S(=O)([O-])C(F)(F)C(F)(F)C(F)(F)C(F)(F)F [1-butyl-1-methylpyrrolidinium perfluorobutanesulfonate] + O
Conditions	electrical conductivity [S/m]
m1 = 0.004597	0.0233
m1 = 0.005016	0.0254
m1 = 0.005639	0.0279
m1 = 0.006033	0.0293
m1 = 0.006491	0.0311
m1 = 0.007025	0.0343
m1 = 0.007655	0.0363
m1 = 0.008405	0.0397
m1 = 0.00933	0.0447
m1 = 0.0105	0.0483
m1 = 0.012	0.0554
m1 = 0.01274	0.0584
m1 = 0.01401	0.0642
m1 = 0.01533	0.0697
m1 = 0.01608	0.0731
m1 = 0.01691	0.0769
m1 = 0.01784	0.0804

CCCCCCCCCCCCn1cc[n+](C)c1.O=S(=O)([O-])C(F)(F)C(F)(F)C(F)(F)C(F)(F)F [1-dodecyl-3-methylimidazolium perfluorobutanesulfonate] + O
Conditions	electrical conductivity [S/m]
m1 = 1.598e-05	0.00011
m1 = 2.066e-05	0.00016
m1 = 2.421e-05	0.00018
m1 = 2.925e-05	0.00022
m1 = 3.682e-05	0.0003
m1 = 4.977e-05	0.00041
m1 = 5.764e-05	0.00048
m1 = 7.583e-05	0.00063
m1 = 8.783e-05	0.0007
m1 = 0.0001043	0.00085
m1 = 0.0001122	0.00089
m1 = 0.0001213	0.00095
m1 = 0.000132	0.00101
m1 = 0.0001448	0.00109
m1 = 0.0001603	0.00118
m1 = 0.0001796	0.00129
m1 = 0.0001903	0.00136

CCCCCC[n+]1ccn(C)c1.O=S(=O)([O-])C(F)(F)C(F)(F)C(F)(F)C(F)(F)F [1-methyl-3-hexylimidazolium perfluorobutanesulfonate] + O
Conditions	electrical conductivity [S/m]
m1 = 0.0006843	0.0038
m1 = 0.001003	0.0055
m1 = 0.001271	0.0072
m1 = 0.001953	0.0108
m1 = 0.002415	0.0133
m1 = 0.002944	0.0163
m1 = 0.003168	0.0174
m1 = 0.00367	0.0201
m1 = 0.004364	0.0235
m1 = 0.004701	0.0252
m1 = 0.005473	0.0291
m1 = 0.006118	0.0323
m1 = 0.006443	0.0339
m1 = 0.007009	0.0367
m1 = 0.007312	0.0382
m1 = 0.007666	0.04
m1 = 0.007936	0.0413
m1 = 0.008317	0.0431
m1 = 0.008657	0.0448
m1 = 0.009459	0.0484
m1 = 0.009734	0.0497
m1 = 0.01004	0.051
m1 = 0.01032	0.0523
m1 = 0.01057	0.0535
m1 = 0.01151	0.0567
m1 = 0.01188	0.0581
m1 = 0.01244	0.0611
m1 = 0.01292	0.0624
m1 = 0.01353	0.0644
m1 = 0.01416	0.0668
m1 = 0.01452	0.069

CCCCCCCCn1cc[n+](C)c1.O=S(=O)([O-])C(F)(F)C(F)(F)C(F)(F)C(F)(F)F [1-methyl-3-octylimidazolium perfluorobutanesulfonate] + O
Conditions	electrical conductivity [S/m]
m1 = 0.0003013	0.0016
m1 = 0.0007028	0.0037
m1 = 0.001019	0.0054
m1 = 0.001249	0.0069
m1 = 0.00155	0.008
m1 = 0.001919	0.0102
m1 = 0.0022	0.0117
m1 = 0.002596	0.0136
m1 = 0.002912	0.0145
m1 = 0.003181	0.0157
m1 = 0.003623	0.017
m1 = 0.003988	0.0176
m1 = 0.004309	0.0183
m1 = 0.004701	0.0192
m1 = 0.005065	0.0202
m1 = 0.005333	0.0206
m1 = 0.005728	0.0209

CCCC[N+](CCCC)(CCCC)CCCC.O=S(=O)([O-])C(F)(F)C(F)(F)C(F)(F)C(F)(F)F [tetrabutylammonium perfluorobutanesulfonate] + O
Conditions	electrical conductivity [S/m]
m1 = 0.002247	0.0136
m1 = 0.002283	0.0138
m1 = 0.002308	0.0139
m1 = 0.002329	0.014
m1 = 0.002356	0.0142
m1 = 0.002375	0.0143
m1 = 0.002407	0.0145
m1 = 0.002447	0.0147
m1 = 0.002477	0.0148
m1 = 0.002494	0.0149
m1 = 0.002516	0.015
m1 = 0.002534	0.0151
